Active and inactive are the calls of the source. The calls are words filed in the database; no cut-off is given here.
How the values were obtained:
[1] = test system: KB; assay: Cytotoxicity against human KB cells at 20 uM after 72 hrs by neutral red staining; format: functional, cell-based
[2] = test system: KB; assay: Cytotoxicity against human KB cells after 72 hrs by neutral red staining; format: functional, cell-based
[3] = target: Acetylcholinesterase (Electrophorus electricus, UniProt O42275)
Description: Inhibition of Electrophorus electricus C2888 AChE using acetylthiocholine iodide as substrate by Ellman's spectroscopic method

[4] = target: Acetylcholinesterase (Electrophorus electricus) (UniProt O42275); details: C2888, 50 uM
Chain of Acetylcholinesterase (Electrophorus electricus) (O42275 24-633 limits assumed): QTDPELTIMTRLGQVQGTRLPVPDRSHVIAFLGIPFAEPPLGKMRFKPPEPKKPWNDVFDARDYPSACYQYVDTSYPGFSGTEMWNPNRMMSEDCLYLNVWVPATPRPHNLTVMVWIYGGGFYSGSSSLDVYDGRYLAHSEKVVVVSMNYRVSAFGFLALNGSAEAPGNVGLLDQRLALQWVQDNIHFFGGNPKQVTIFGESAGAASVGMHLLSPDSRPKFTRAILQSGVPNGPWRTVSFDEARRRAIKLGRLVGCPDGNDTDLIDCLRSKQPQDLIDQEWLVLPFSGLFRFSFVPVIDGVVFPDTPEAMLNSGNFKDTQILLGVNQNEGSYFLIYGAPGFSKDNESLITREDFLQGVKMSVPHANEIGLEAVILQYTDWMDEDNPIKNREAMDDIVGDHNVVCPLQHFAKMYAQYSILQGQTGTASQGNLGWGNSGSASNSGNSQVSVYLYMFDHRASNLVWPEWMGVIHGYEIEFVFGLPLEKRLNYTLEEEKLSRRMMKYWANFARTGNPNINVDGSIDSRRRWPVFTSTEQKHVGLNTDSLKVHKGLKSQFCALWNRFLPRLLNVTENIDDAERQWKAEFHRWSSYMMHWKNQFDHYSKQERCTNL
Description: Inhibition of Electrophorus electricus C2888 AChE using acetylthiocholine iodide as substrate at 50 uM by Ellman's spectroscopic method

Chain of Acetylcholinesterase (O42275 whole entry): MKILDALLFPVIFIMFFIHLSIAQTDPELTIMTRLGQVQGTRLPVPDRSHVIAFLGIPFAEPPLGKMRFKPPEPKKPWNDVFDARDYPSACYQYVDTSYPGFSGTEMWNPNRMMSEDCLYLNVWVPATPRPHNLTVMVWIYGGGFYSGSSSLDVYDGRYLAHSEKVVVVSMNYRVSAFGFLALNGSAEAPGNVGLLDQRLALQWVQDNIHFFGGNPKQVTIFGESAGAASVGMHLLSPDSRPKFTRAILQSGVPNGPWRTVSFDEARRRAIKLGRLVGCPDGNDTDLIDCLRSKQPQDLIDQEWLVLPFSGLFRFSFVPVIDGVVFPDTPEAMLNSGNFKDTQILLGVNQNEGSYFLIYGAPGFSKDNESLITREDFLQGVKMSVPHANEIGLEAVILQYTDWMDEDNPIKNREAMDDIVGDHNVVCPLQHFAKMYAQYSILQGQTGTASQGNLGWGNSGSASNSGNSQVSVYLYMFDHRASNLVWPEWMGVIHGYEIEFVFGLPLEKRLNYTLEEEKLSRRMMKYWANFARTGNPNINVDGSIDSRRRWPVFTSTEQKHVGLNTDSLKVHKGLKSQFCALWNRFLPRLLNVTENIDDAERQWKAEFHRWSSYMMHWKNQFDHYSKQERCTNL

Row | SMILES | Activity [1] | IC50 [2] | IC50 [3] | inhibition [4]
1 | COc1cc(O)c2c(=O)c(O)c(-c3ccccc3)oc2c1 | inactive | – | – | –
2 | C=C(C)C(O)Cc1c(O)cc2oc(-c3ccccc3)c(O)c(=O)c2c1O (racemic) | inactive | – | – | –
3 | COc1cc(/C=C/c2ccccc2)c(CC=C(C)C)c(OC)c1 | – | 4 µM | 19 µM | –
4 | CC(C)=CCc1c(O)cc2c(c1O)C(=O)C[C@@H](c1ccccc1)O2 | inactive | – | 18 µM | –
5 | CC1(C)Oc2cc3oc(-c4ccccc4)c(O)c(=O)c3c(O)c2CC1O (racemic) | – | 13 µM | – | –
6 | CC(C)=CCc1c(O)cc(O)c2c(=O)c(O)c(-c3ccccc3)oc12 | inactive | – | – | –
7 | Oc1cc(/C=C/c2ccccc2)c2ccoc2c1 [FURANOKURZIN] | inactive | – | 42 µM | –
8 | CC(C)=CCc1c(O)cc(O)c2c1O[C@H](c1ccccc1)CC2=O [GLABRANIN] | inactive | – | 23 µM | –
9 | COc1cc(/C=C/c2ccccc2)cc(OC)c1 [3,5-O-DIMETHYLPINOSYLVIN] | inactive | – | 9 µM | –
10 | COc1cc(/C=C\c2ccccc2)cc(OC)c1 | inactive | – | – | –
11 | O=c1c(O)c(-c2ccccc2)oc2cc(O)cc(O)c12 | inactive | – | – | –
12 | CC1(C)C=Cc2c(cc3oc(-c4ccccc4)c(O)c(=O)c3c2O)O1 [MACAKURZIN C] | inactive | – | 20 µM | inactive
13 | CC(C)=CCc1c(O)cc2oc(-c3ccccc3)c(O)c(=O)c2c1O | – | 10 µM | – | –

— ChEMBL document CHEMBL2163346, “Acetylcholinesterase inhibitors from the leaves of Macaranga kurzii” (J Nat Prod, 2012)
